The record followed here is article PMC9388906, “Dual inhibition of the Echinococcus multilocularis energy metabolism” (Frontiers in Veterinary Science, 2022).

Common to all, as to assay type: cell-based, Echinococcus multilocularis
For assay [1], the system named is E. multilocularis metacestodes (isolate Sval). In words: PGI assay (damage marker release), metacestodes, isolate Sval. The conditions noted are these: isolate Sval, 10 μM. As to the method: (§1) To assess the in vitro efficacy of ELQs against E. multilocularis, (a) the damage-marker phosphoglucose isomerase (PGI) assay was applied against metacestodes, and (b) the germinal layer (GL) cell viability assay was applied to measure effects on isolated GL cells. Both assays are described in more detail below. The drug testing strategy was as follows: PGI assay was first conducted for overview screening at 10 μM with the parasite isolates H95 and Sval. The GL cell viability assay was performed at 0.1 μM with both isolates H95 and Sval.
(§2) The PGI assay measures the amount of PGI that metacestodes release into the medium when damaged ([17], [32]). The purification and in vitro drug incubation of E. multilocularis metacestodes was conducted according to Stadelmann et al. ([32]). In short, cultures were applied for in vitro drug testing at the age of 6-8 weeks. E. multilocularis metacestodes were therefore purified by the addition of 2% saccharose and washed extensively with PBS. Purified metacestodes were suspended 1:3 with DMEM (without phenol red, supplemented with 100 U/mL penicillin, 100 μg/mL streptomycin) and distributed in 48-well plates (1 mL/well, thus 300 μL pure metacestode vesicles per well). […] The corresponding DMSO concentration was used as negative control and Tx-100 (0.1% final concentration) was used for total damage (positive control). […] After 5 days, relative PGI activities were measured and calculated as percentage of the Tx-100 control as described previously in Rufener et al. ([17]). They were calculated as mean values and standard deviations for each triplicate. […] EC50 measurements were performed twice, and averages and standard deviations of these repeated tests are given.

The subject of assay [2] is E. multilocularis metacestodes (isolate H95). The assay is described as follows: PGI assay (damage marker release), metacestodes, isolate H95. The conditions noted are these: isolate H95, 5 days. As to the method:
as §1, §2

The subject of assay [3] is E. multilocularis metacestodes. The assay is described as follows: Transmission electron microscopy of treated metacestodes. As to conditions: 5 days. As to the method:
E. multilocularis metacestodes treated with ELQ-400 (0.2, 1 and 2 μM, 5 days of incubation) under normoxic (37°C, 21% O2, 5% CO2, humid atmosphere) and anaerobic conditions (37°C, 80% N2, 10% CO2, and 10% H2, humid atmosphere) were processed for TEM as previously described ([17]). Metacestodes were washed in 100 mM sodium cacodylate buffer (pH 7.3), and were fixed in 2% glutaraldehyde in cacodylate buffer overnight at 4°C. Following several washes in cacodylate buffer, metacestodes were post-fixed in 2% osmium tetroxide in cacodylate buffer for 3–4 h, washed in water, and samples were treated with Uranyless™ solution (EMS, Hatfield, PA, USA) for 20 min, followed by several washes in distilled water. Specimens were dehydrated in a graded series of ethanol and were embedded in EPON-812 epoxy resin. Polymerization of the resin was carried out at 60°C for 24 h. Ultrathin sections were cut on a Reichert and Jung (Vienna) microtome, and were allowed to settle onto 400 mesh formvar carbon coated grids (Plano GmbH, Wetzlar, Germany). Specimens were contrasted with Uranyless and lead citrate, and were viewed on a FEI Morgagni Transmission Electron Microscope operating at 80 kV.

One may read the EC50 as the concentration that produces a half-maximal response.

On to `Cc1[nH]c2cc(F)cc(F)c2c(=O)c1-c1ccc(Oc2ccc(OC(F)(F)F)cc2)cc1` [ELQ-400], for which the “Metacestodes, PGI assay, relative to positive control Tx-100” value is recorded as 27 (10.5) % in assay [1] (5 days, normoxic, mean (SD) of triplicates, active if >20%) and 21.4 (2.5) % in assay [2] (10 μM, normoxic, mean (SD) of triplicates, active if >20%). The “Activity in PGI assay (activity call)” value in assay [1] (threshold >20% of Tx-100) was “activity”. Further, the EC50 in assay [2] (PGI assay, range tested 30–0.12 μM, mean (SD) of two tests, read-out: EC50 metacestodes) stood at 1.06 µM. In addition, the “Ultrastructural effects on metacestodes (TEM)” value in assay [3] (0.2 μM, normoxic (21% O2)) is “did not show obvious ultrastructural alterations”; in assay [3] (2 μM, normoxic (21% O2)) it was “partial separation of the GL and the LL”; in assay [3] (anaerobic conditions, compared with damage at 1 and 2 μM under normoxic conditions), “did not exhibit such alterations”. For the same molecule, the “Ultrastructural effects on metacestodes (TEM): overall structural organization, especially of the GL” value in assay [3] (1 μM, normoxic (21% O2)) is “partially compromised”.
